Measured values from patent publication US20140322161A1, “ANTI-IL-6 VACCINE COMPOSITION” (PEPTINOV SAS, priority 2011, published 2014).
Bridges are numbered along the chain shown (N, C = ends). BDB = bisdiazonium-benzidine, coupling agent to KLH

Columns and labels:
hIL-6 = hIL-6 (Homo sapiens, UniProt P05231); test: ELISA cross-reactivity of sera from OF1 mice immunized with mIL-6-derived peptides, plates covered with human IL-6; assay type: in vivo; details: D54 sera diluted 1/500, plates covered with human IL-6
hIL-6, sequence (P05231 30-212): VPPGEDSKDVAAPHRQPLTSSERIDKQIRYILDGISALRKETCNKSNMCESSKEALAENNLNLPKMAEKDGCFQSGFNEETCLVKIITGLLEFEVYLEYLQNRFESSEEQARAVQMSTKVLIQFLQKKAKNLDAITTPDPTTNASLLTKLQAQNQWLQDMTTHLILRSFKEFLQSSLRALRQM
Text: Six peptides derived from murine IL-6 were chemically synthesized and coupled to a carrier protein, KLH (Keyhole Limpet Hemocyanin), five using the coupling agent bisdiazonium-benzidine (BDB) and one with glutaraldehyde. These peptides were then cyclized by the formation of disulfide bonds between cysteines (added or already present).
For each peptide, Oncins France 1 mice (OF1, Charles River Laboratories, L'Arbresle, France) free from specific pathogenic organisms were immunized by intra-muscular route with 100 μg of peptides derived from murine IL-6 mP1, mP2, mP3, mP4, mP5, and mP6 (see Table 1) in complete Freund's adjuvant (CFA) at the start of the experiment (D0) (n=4 per peptide).
Incomplete Freund's adjuvant (IFA) boosters are then given every 15 days, on D15, D30 and D45. The sera from mice on D54 are tested by ELISA with a 1/500th dilution of the serums on plates covered with murine IL-6 or human IL-6 in order to evaluate their cross-reactivity.

mIL-6 = molecular target: T1, mIL-6 (Mus musculus, UniProt P08505); test: ELISA of antibody production against mIL-6 in DBA/2 mice immunized with mP2; assay type: in vivo; details: 100 μg cyclized mP2 coupled to KLH, day 54 sera, FIG. 9
T1 sequence (P08505 25-211): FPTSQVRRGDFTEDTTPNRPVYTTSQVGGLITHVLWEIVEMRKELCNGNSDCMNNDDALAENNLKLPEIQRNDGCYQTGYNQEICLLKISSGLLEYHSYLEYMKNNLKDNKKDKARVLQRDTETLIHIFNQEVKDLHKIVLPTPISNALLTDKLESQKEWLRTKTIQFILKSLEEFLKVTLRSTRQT
Description: (§1) Briefly, three groups of DBA/2 mice (Janvier, France) immunized intramuscularly four times (once in complete Freund's adjuvant (CFA), and three times in incomplete Freund's adjuvant (IFA)) every 15 days with different vaccine preparations: • 8 mice were immunized with 100 μg of the above-described cyclized mP2 peptide coupled to KLH (mP2-Bleo group) and were injected subcutaneously in the back with bleomycin • 6 mice were immunized with 100 μg of mP2 (mP2-Nacl group) and were injected subcutaneously in the back with NaCl (Negative control group) • 8 mice were group immunized with 200 μg of KLH alone (KLH-Bleo group) and were injected subcutaneously in the back with bleomycin. (Positive control group)
(§2) At day 54, the mice were killed. Sera samples were collected and the antibody production against mIL-6 was quantified by ELISA. Furthermore, skin biopsies were performed to evaluate the OH-proline production, indicative of collagen production, and histological sections from the back were also performed to evaluate dermal thickness.

C57BL/6 mice = test: Murine model of chronic colitis induced by DSS after vaccination; assay type: in vivo
Text: Chronic colitis induced by Dextran Sodium Sulfate (DSS) is a well-known model of chronic inflammatory disease reproducing the main characteristics of the human diseases (Alex et al. (2009) Inflamm. Bowel Dis. 15:341-352).
Briefly, groups of 6 C57BL/6 mice (Charles River Laboratories, L'Arbresle, France) were formed. The mice were immunized 4 times (once with CFA and three times with IFA) every 15 days with different vaccine preparations. The mice were respectively immunized with PBS (DSS/PBS group), 50 μg per mouse of KLH (DSS/KLH group), and 100 μg per mouse of peptide mP1, mP2, mP3, mP4, mP5 and mP6 coupled with KLH (DSS/mIL-6 peptide group). A control H2O group was also included. Four days after the first booster, colitis was induced by absorption of Dextran Sodium Sulfate (DSS) in water (2%) over 7 days followed by 7 days of water. Three DSS/water cycles were thus carried out, after which the mice received water until the end of the protocol. The clinical signs of the disease appear approximately on the fifth day after the start of treatment with DSS (D26 of the protocol). The development of the disease is measured from the start of the first DSS cycle up to the end of the protocol by a disease activity index (DAI) including weight loss, the presence of blood in the stools and the texture of the stools. The clinical scores are determined as follows: for the texture of the stools a score of 0 (hard stools) to 4 (diarrhoea), for the presence of blood in the stools a score of 0 (absence) to 4 (macroscopic blood), and weight loss a score of 0 (<1%) to 4 (>20%). Each mouse is thus assigned a clinical score with a maximum score of 12.
Then, on D67, the mice are killed by cervical dislocation. The histological sections from colon distal biopsies are scored blind, according to the severity of the inflammation (0: absence, 1: slight, 2: moderate, 3: severe), the extent of the inflammation (0: absence, 1: mucosal, 2: mucosal and sub-mucosal, 3: transmural), crypt damage (0: absence, 1: one-third damaged, 2: ⅔ damaged, 3: only the surface of the epithelium intact, 4: total destruction of the crypts and epithelium). Each mouse is thus assigned a histological score with a maximum score of 10.

DBA/2 mice = test: Murine model of bleomycin-induced systemic sclerosis after vaccination; assay type: in vivo; details: for skin fibrosis (OH-proline content of skin biopsies): mP2-immunized, FIG. 10
Text: The murine model of bleomycin-induced systemic sclerosis is a well-known model of chronic inflammatory disease with main features being dermal thickness together with skin and pulmonary fibrosis due to excessive collagen production (Adamson & Bowden (1974) Am. J. Pathol. 77:185-197)
as §1
The inventors also used an additional control group composed of mice injected intraperitoneally with 100 μL (1 mg/mouse) of murine monoclonal anti IL-6 receptor antibody once a week (n=6).
The subcutaneous injections of 100 μL of bleomycin (0.5 mg/mL) were performed three days after the third boost and then every other day during three weeks in order to induce systemic sclerosis.
as §2
The collagen content was measured in the skin biopsy from each mouse by assaying hydroxyproline (OH-proline) content. OH-proline represents about 13% of collagen amino acids and is measured to evaluate collagen production. […] The absorbance is read at 560 nm.
Dermal thickness from histological sections was then measured in a blind way by two independent experts.

murine IL-6 = molecular target: T2, murine IL-6 (Mus musculus, UniProt P08505); test: Murine IL-6 neutralization test on murine B9 hybridomas with purified IgGs from immunized rabbits; assay type: cell-based; details: purified IgGs from rabbits immunized with the peptide; B9 hybridoma proliferation, XTT
T2 sequence (P08505 25-211): T1 sequence (P08505 25-211)
Description: The neutralizing ability of purified IgGs based on serum from rabbits immunized with the peptides mP1, mP2, mP3, mP4, mP5 and mP6 respectively, was tested in a murine IL-6 neutralization test. This test is based on the fact that murine B9 hybridomas proliferate in a dose-dependent manner in response to murine IL-6 (Brakenhoff et al. (1987) J. Immunol. 139:4116-21).
Plating (D0): seed a flat-bottom 96-well plate, treated for cell culture with 5000 cells per well in 50 μL of neutralization medium. (RPMI 1640 without phenol red, 5% v/v Foetal Calf Serum (FCS), 2 mM L-Glutamine, 100 U/mL Penicillin/Streptomycin, […] of β-Mercaptoethanol)
In parallel a so-called “pre-incubation” plate is produced with the desired concentration of murine IL-6, samples and commercial anti-mIL-6 antibodies used as positive control, all in a final volume of 100 μL of neutralization medium.
The pre-incubation plate is left at 37° C. for 2 hours. 50 μL per well is then transferred to the corresponding wells of the plate containing the cells, then the latter is incubated with 5% CO2 at 37° C. for 96 hours.
Development (D4): Add 50 μL of a solution of XTT (for 2,3-bis-(2-methoxy-4-nitro-5-sulfophenyl)-2H-tetrazolium-5-carboxanilide)—0.5% electron coupling reagent to each well. Leave to incubate at 37° C. for 7 hours. Reading of the optical density on a spectrophotometer set at 450 nm.

Acetyl+C76MNNDDALAENNLKLPE92C-Y-BDB (Ac-CMNNDDALAENNLKLPECY-{BDB}; disulfide 1-18 (inferred)) [mP2, peptide derived from mIL-6 region 76-92]
cross-reactivity with the human cytokine (ELISA) (hIL-6): apart from the antibodies directed against the peptide mP2 | development of antibodies against mIL-6 (ELISA) (mIL-6): developed antibodies against mIL-6 | histological colitis score (C57BL/6 mice; D67 colon distal biopsies, compared with control mice treated with PBS or KLH alone, FIG. 3): significantly reduced histological score | disease activity index (DAI) (C57BL/6 mice; DSS-treated C57BL/6 mice, 100 μg peptide coupled with KLH, compared with the control groups, FIG. 2): significantly reduced disease activity index | reduction of the length of the colon (C57BL/6 mice; DSS-treated C57BL/6 mice, compared with control mice, FIG. 4): significantly less severe reduction of the colon | dermal thickening (histological sections) (DBA/2 mice; bleomycin model, versus mice immunized with KLH only, identical with anti mIL-6 receptor group, FIG. 11): lower dermal thickening | skin fibrosis (OH-proline content of skin biopsies) (DBA/2 mice; injected subcutaneously with NaCl (negative control group)): did not develop skin fibrosis | skin fibrosis (OH-proline content of skin biopsies) (DBA/2 mice; injected subcutaneously with bleomycin, same efficacy as anti IL-6 receptor antibody group): protected from the development of fibrosis | neutralization of the biological activity of murine IL-6 (murine IL-6): neutralize the biological activity of murine IL-6 in a dose-dependent manner
